What was measured:
cats = test: 2-bottle choice difference test of tastant solutions in water, intake by cats; set-up: species or system cat; settings: amino acids of the second group
Procedure: Cats were allowed access to water containing either 25 mM proline+25 mM histidine with a composition comprising 50 mM histidine. The methodology used a 2-bottle choice test with 24 cats (the final number of cats for each test can vary due to data being discarded by spillage, etc.). Cats were housed individually during trial periods and had free access to water available between testing periods. The test involved a choice test between the tastant/mixture at a given concentration dissolved in deionised water versus deionised water only or another tastant/mixture. Control was made for positional bias (e.g. A/B exposure 1 and B/A exposure 2) and evaporation loss. The testing time was 36 hours (i.e. 18 hours per day, allowing a two-day crossover). Following two consecutive days of each testing, cats had two consecutive days of rest. Cats were offered a dry diet as a single meal at the start of the test period for one hour, calculated to meet the individual requirements for each cat.

[1] = system: T1R1/T1R3 receptor (umami receptor); test: In vitro screening for binding and activation of the umami receptor; format: cell-based, cat; settings: for binding to and activation of the umami receptor: in silico modelling and in vitro assays using a non-human umami receptor, screening in the presence of 0.2 mM IMP
Procedure: In vitro screening was carried out in order to establish which first amino acids bind and activate the umami receptor.
In vitro screening was carried out in order to establish which second amino acids bind and activate the umami receptor.

Row | SMILES | acceptance (flavour effect) in in vivo tests (cats) | binding to and activation of the umami receptor [1] | binding to the feline umami receptor [1]
1 | O=C(O)[C@@H]1C[C@@H](O)CN1 [hydroxyproline] | positive acceptance |  | 
2 | NC(=O)CC[C@H](N)C(=O)O [glutamine] | positive acceptance |  | 
3 | O=C(O)[C@@H]1CCCN1 [proline] | positive acceptance |  | 
4 | CSCC[C@H](N)C(=O)O [methionine] |  | able to bind to and activate the umami receptor to different extents | 
5 | N[C@@H](CSSC[C@H](N)C(=O)O)C(=O)O [cystine] | positive acceptance |  | 
6 | N[C@@H](Cc1ccccc1)C(=O)O [phenylalanine] |  | able to bind to and activate the umami receptor to different extents | 
7 | NCCC[C@H](N)C(=O)O [ornithine] | positive acceptance |  | 
8 | CC[C@H](C)[C@H](N)C(=O)O [isoleucine] | positive acceptance |  | 
9 | N[C@@H](Cc1ccc(O)cc1)C(=O)O [tyrosine] |  | able to bind to and activate the umami receptor to different extents | 
10 | N[C@@H](Cc1c[nH]c2ccccc12)C(=O)O [tryptophan] |  | able to bind to and activate the umami receptor to different extents | 
11 | CC(C)C[C@H](N)C(=O)O [leucine] |  | able to bind to and activate the umami receptor to different extents | 
12 | C[C@H](N)C(=O)O [alanine] |  | able to bind to and activate the umami receptor to different extents | 
13 | NCC(=O)O [glycine] |  | able to bind to and activate the umami receptor to different extents | 
14 | NC(=O)C[C@H](N)C(=O)O [asparagine] |  | able to bind to and activate the umami receptor to different extents | 
15 | N[C@@H](CCC(=O)O)C(=O)O [glutamic acid] | positive acceptance |  | does not bind
16 | N[C@@H](CC(=O)O)C(=O)O [aspartic acid] | positive acceptance |  | does not bind
17 | C[C@@H](O)[C@H](N)C(=O)O [threonine] | positive acceptance |  | 
18 | NCCCC[C@H](N)C(=O)O [lysine] | positive acceptance |  | 
19 | N[C@@H](CS)C(=O)O [cysteine] |  | able to bind to and activate the umami receptor to different extents | 
20 | N[C@@H](Cc1c[nH]cn1)C(=O)O [histidine] |  | able to bind to and activate the umami receptor to different extents | 
21 | CC(C)[C@H](N)C(=O)O [valine] | positive acceptance |  | 
22 | N[C@@H](CO)C(=O)O [serine] |  | able to bind to and activate the umami receptor to different extents | 
